Literature values as cited in US20030064122A1 (priority 2001, published 2003).

System: nasal mucosa of men and women
Conditions: introduced to the nasal mucosa of men and women

Q: Which “amount shown to induce secretion, sneezing, and/or cough” value does the source give for `COc1cc(CNC(=O)CCCCC=CC(C)C)ccc1O` [Capsaicin, 8-Methyl-N-vanillyl-6-nonenamide] here?
A: 75 micrograms
